The record followed here is patent publication EP4227307A1 (Genzyme Corporation, priority 2022, dated 2023).

Counter-ions that a name gives are not always drawn.

The assay addresses T1, human recombinant 6His-Nterm SHP2 full-length (Thr2-Arg593) (Homo sapiens, UniProt Q06124).
T1 construct: 6His-Nterm SHP2 full-length (Thr2-Arg593, R&D system); 6His (N); purchased R&D system
T1 sequence (Q06124 2-593): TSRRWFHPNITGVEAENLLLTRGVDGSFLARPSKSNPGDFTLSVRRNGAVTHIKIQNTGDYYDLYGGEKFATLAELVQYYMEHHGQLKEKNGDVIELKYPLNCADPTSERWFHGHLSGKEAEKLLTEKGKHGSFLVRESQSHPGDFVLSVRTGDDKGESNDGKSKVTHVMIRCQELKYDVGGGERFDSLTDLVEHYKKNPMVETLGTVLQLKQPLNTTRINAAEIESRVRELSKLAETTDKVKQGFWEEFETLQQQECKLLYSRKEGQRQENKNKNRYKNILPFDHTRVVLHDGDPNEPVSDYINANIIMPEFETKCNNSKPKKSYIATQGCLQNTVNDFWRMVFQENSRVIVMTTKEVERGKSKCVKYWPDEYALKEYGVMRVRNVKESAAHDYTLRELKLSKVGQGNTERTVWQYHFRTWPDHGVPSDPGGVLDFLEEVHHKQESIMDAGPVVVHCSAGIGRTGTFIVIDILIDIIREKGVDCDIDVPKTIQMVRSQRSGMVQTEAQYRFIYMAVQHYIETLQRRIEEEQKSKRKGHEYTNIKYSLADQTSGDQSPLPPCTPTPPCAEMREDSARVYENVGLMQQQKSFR
Kind of assay: SHP2 Phosphatase Assay (DiFMUP fluorescence). As to conditions: SHP2 0.2 nM pre-incubated with 100 nM bi-phosphorylated activating peptide; compound 1000-0.05 nM, 30 min pre-incubation; DiFMUP 20 µM, 45 min, room temperature; 10-concentration dose-response. In kind it is biochemical. The procedure, abridged:
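SHP2 (0.2 nM) preactivated ≥10 min with 100 nM bis-phosphorylated peptide, then 30 min with compound (10 concentrations, 1000–0.05 nM) at room temperature, pH 7.2 HEPES buffer with DTT. DiFMUP (20 µM, added solution) reacted 45 min, pervanadate-stopped; fluorescence 350/450 nm. IC50 by 4-parameter logistic fit.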
For `CCn1cc(-c2c(C)nc(N3CCC4(CC3)Cc3cc(OC)ccc3[C@H]4N)c3ccnn23)cn1` [Compound 148, (1S)-1'-[7-(1-ethylpyrazol-4-yl)-6-methyl-pyrazolo[1,5-a]pyrazin-4-yl]-5-methoxy-spiro[indane-2,4'-piperidine]-1-amine], the IC50 (usually the point on the concentration scale where inhibition reaches its midpoint) was 9 nM.
`COc1ccc2c(c1)[C@@H](N)C1(CCN(c3nc(C)c(-c4ccncc4Cl)n4nccc34)CC1)C2` [Compound 119, hydrochloride]: the IC50 is 4 nM.
As for `Cc1nccc(-c2cnc(N3CCC4(CC3)Cc3ncccc3[C@H]4N)c3ccnn23)c1Cl` [Compound 86, (5S)-1'-[7-(3-chloro-2-methyl-4-pyridyl)pyrazolo[1,5-a]pyrazin-4-yl]spiro[5,7-dihydrocyclopenta[b]pyridine-6,4'-piperidine]-5-amine hydrochloride], the figure is 60 nM; as for `Cc1nccc(-c2c(C)nc(N3CCC4(CC3)Oc3ccccc3[C@H]4N)c3ccnn23)c1Cl` [Compound 128, (3R)-1'-[7-(3-chloro-2-methyl-4-pyridyl)-6-methyl-pyrazolo[1,5-a]pyrazin-4-yl]spiro[3H-benzofuran-2,4'-piperidine]-3-amine], 17 nM.
As for `COc1ccc2c(c1)[C@@H](N)C1(CCN(c3nc(C)c(-c4cccc(F)c4Cl)n4nccc34)CC1)C2` [Compound 9, (1S)-1'-[7-(2-chloro-3-fluorophenyl)-6-methyl-pyrazolo[1,5-a]pyrazin-4-yl]-6-methoxy-spiro[indane-2,4'-piperidine]-1-amine hydrochloride], the figure is 43 nM; as for `COCc1cnn2c(-c3ccccc3F)c(C)nc(N3CCC4(CC3)Cc3ncccc3[C@H]4N)c12` [Compound 225, (5S)-1'-[7-(2-fluorophenyl)-3-(methoxymethyl)-6-methyl-pyrazolo[1,5-a]pyrazin-4-yl]spiro[5,7-dihydrocyclopenta[b]pyridine-6,4'-piperidine]-5-amine], over 1000 nM; as for `Cc1nc(N2CCC3(CC2)Cc2ncccc2[C@H]3N)c2ccnn2c1-c1ccnn1C` [Compound 29, (5S)-1'-[6-methyl-7-(2-methylpyrazol-3-yl)pyrazolo[1,5-a]pyrazin-4-yl]spiro[5,7-dihydrocyclopenta[b]pyridine-6,4'-piperidine]-5-amine hydrochloride], 38 nM.
With `Cc1nc(N2CCC3(CC2)Cc2scnc2[C@H]3N)c2ccnn2c1-c1cccc(F)c1F` [Compound 65, (4S)-1'-[7-(2,3-difluorophenyl)-6-methyl-pyrazolo[1,5-a]pyrazin-4-yl]spiro[4,6-dihydrocyclopenta[d]thiazole-5,4'-piperidine]-4-amine hydrochloride], the IC50 was found to be 22 nM.
As for `Cc1nc(N2CCC3(CC2)Cc2ncccc2[C@H]3N)c2ccnn2c1-c1ccc(F)c(F)c1` [Compound 201, (5S)-1'-[7-(3,4-difluorophenyl)-6-methyl-pyrazolo[1,5-a]pyrazin-4-yl]spiro[5,7-dihydrocyclopenta[b]pyridine-6,4'-piperidine]-5-amine], the figure is 3 nM.
As for `Cc1nc(N2CCC3(CC2)Cc2ncccc2[C@H]3N)c2ccnn2c1-c1cncs1` [Compound 157, (5S)-1'-(6-methyl-7-thiazol-5-yl-pyrazolo[1,5-a]pyrazin-4-yl)spiro[5,7-dihydrocyclopenta[b]pyridine-6,4'-piperidine] -5-amine hydrochloride], the figure is 72 nM.
As for `Cc1nccc(-c2c(C)nc(N3CCC4(CC3)Cc3c(F)cccc3[C@H]4N)c3ccnn23)c1Cl` [Compound 92, (1S)-1'-[7-(3-chloro-2-methyl-4-pyridyl)-6-methyl-pyrazolo[1,5-a]pyrazin-4-yl]-4-fluoro-spiro[indane-2,4'-piperidine]-1-amine formate], the figure is 8 nM; as for `Cc1nn(C)c(C)c1-c1c(C)nc(N2CCC3(CC2)Cc2ncccc2[C@H]3N)c2ccnn12` [Compound 33, (5S)-1'-[6-methyl-7-(1,3,5-trimethylpyrazol-4-yl)pyrazolo[1,5-a]pyrazin-4-yl]spiro[5,7-dihydrocyclopenta[b]pyridine-6,4'-piperidine]-5-amine], over 1000 nM; as for `Cc1c(-c2cnc(N3CCC4(CC3)Cc3ncccc3[C@H]4N)c3ccnn23)cnn1C` [Compound 88, (5S)-1'-[7-(1,5-dimethylpyrazol-4-yl)pyrazolo [1,5-a]pyrazin-4-yl]spiro[5,7-dihydrocyclopenta[b]pyridine-6,4'-piperidine] -5-amine hydrochloride], 346 nM.
In the case of `COc1cnc2c(c1)[C@@H](N)C1(CCN(c3nc(C)c(-c4ccnc(C)c4Cl)n4nccc34)CC1)C2` [Compound 23, (5S)-1'-[7-(3-chloro-2-methyl-4-pyridyl)-6-methyl-pyrazolo[1,5-a]pyrazin-4-yl]-3-methoxy-spiro[5,7-dihydrocyclopenta[b]pyridine-6,4'-piperidine]-5-amine], the IC50 was 10 nM.
As for `COc1ccc(F)c(-c2c(C)nc(N3CCC4(CC3)Cc3ncccc3[C@H]4N)c3ccnn23)c1` [Compound 31, (5S)-1'-[7-(2-fluoro-5-methoxy-phenyl)-6-methyl-pyrazolo[1,5-a]pyrazin-4-yl]spiro[5,7-dihydrocyclopenta[b]pyridine-6,4'-piperidine]-5-amine], the figure is 13 nM.
Then `Cc1nc(N2CCC3(CC2)Oc2ccccc2[C@H]3N)c2ccnn2c1-c1cccc(F)c1Cl` [Compound 20, (3R)-1'-[7-(2-chloro-3-fluorophenyl)-6-methyl-pyrazolo[1,5-a]pyrazin-4-yl]spiro[3H-benzofuran-2,4'-piperidine]-3-amine], with 115 nM; and `Cc1nc(N2CCC3(CC2)Cc2c(F)cccc2[C@H]3N)c2ccnn2c1-c1cnn(C)c1C` [Compound 95, (1S)-1'-[7-(1,5-dimethylpyrazol-4-yl)-6-methyl-pyrazolo[1,5-a]pyrazin-4-yl]-4-fluoro-spiro[indane-2,4'-piperidine]-1-amine formate], with 19 nM; and `COc1cccc(-c2c(C)nc(N3CCC4(CC3)Cc3ncccc3[C@H]4N)c3ccnn23)c1F` [Compound 4, (5S)-1'-[7-(2-fluoro-3-methoxy-phenyl)-6-methyl-pyrazolo [1 ,5-a]pyrazin-4-yl]spiro[5,7-dihydrocyclopenta[b]pyridine-6,4'-piperidine] -5-amine], with 7 nM.
As for `Cc1cnccc1-c1c(C)nc(N2CCC3(CC2)Cc2ncccc2[C@H]3N)c2ccnn12` [Compound 98, (5S)-1'-[6-methyl-7-(3-methyl-4-pyridyl)pyrazolo[1,5-a]pyrazin-4-yl]spiro [5,7-dihydrocyclopenta[b]pyridine-6,4'-piperidine] -5-amine formate], the figure is 145 nM; as for `Cc1nc(N2CCC3(CC2)Cc2ncccc2[C@H]3N)c2ccnn2c1-c1ccccc1F` [Compound 51, (5S)-1'-[7-(2-fluorophenyl)-6-methyl-pyrazolo[1,5-a]pyrazin-4-yl]spiro[5,7-dihydrocyclopenta[b]pyridine-6,4'-piperidine]-5-amine], 5 nM; as for `Cc1nc(N2CCC3(CC2)Cc2nc(O)ccc2[C@H]3N)c2ccnn2c1-c1cccc(F)c1F` [Compound 222, (5S)-5-amino-1'-[7-(2,3-difluorophenyl)-6-methyl-pyrazolo[1,5-a]pyrazin-4-yl]spiro[5,7-dihydrocyclopenta[b]pyridine-6,4'-piperidine]-2-ol hydrochloride], 1 nM.
Regarding `Cc1nc(N2CCC3(CC2)Cc2ncccc2[C@H]3N)c2c(C(F)F)cnn2c1-c1ccccc1` [Compound 146, (5S)-1'-[3-(difluoromethyl)-6-methyl-7-phenyl-pyrazolo [1,5-a]pyrazin-4-yl]spiro[5,7-dihydrocyclopenta[b]pyridine-6,4'-piperidine]-5-amine], the IC50 is over 1000 nM.
Then `Cc1cccc(-c2c(C)nc(N3CCC4(CC3)Cc3ncccc3[C@H]4N)c3ccnn23)c1F` [Compound 166, (5S)-1'-[7-(2-fluoro-3-methyl-phenyl)-6-methyl-pyrazolo[1,5-a]pyrazin-4-yl]spiro[5,7-dihydrocyclopenta[b]pyridine-6,4'-piperidine]-5-amine], with 7 nM.
As for `Cc1nc(N2CCC3(CC2)Cc2cccnc2[C@H]3N)c2ccnn2c1-c1cccc(F)c1Cl` [Compound 12, (7S)-1'-[7-(2-chloro-3-fluorophenyl)-6-methyl-pyrazolo[1,5-a]pyrazin-4-yl]spiro[5,7-dihydrocyclopenta[b]pyridine-6,4'-piperidine]-7-amine], the figure is 14 nM; as for `Cc1nc(N2CCC3(CC2)Cc2ccc(F)cc2[C@H]3N)c2ccnn2c1-c1cnn(C)c1C` [Compound 103, (1S)-1'-[7-(1,5-dimethylpyrazol-4-yl)-6-methyl-pyrazolo[1,5-a]pyrazin-4-yl]-6-fluoro-spiro [indane-2,4'-piperidine]-1-amine hydrochloride], 12 nM.
